In ChEMBL document CHEMBL3425433, “Discovery of bicyclic pyrazoles as class III histone deacetylase SIRT1 and SIRT2 inhibitors” (Bioorg Med Chem Lett, 2015):
Calls of active or inactive are those of the source.

What was measured:
[1] = target: T1, Histone deacetylase 8 (Homo sapiens) (UniProt Q9BY41); assay: Inhibition of HDAC8 (unknown origin)
T1 sequence (whole entry): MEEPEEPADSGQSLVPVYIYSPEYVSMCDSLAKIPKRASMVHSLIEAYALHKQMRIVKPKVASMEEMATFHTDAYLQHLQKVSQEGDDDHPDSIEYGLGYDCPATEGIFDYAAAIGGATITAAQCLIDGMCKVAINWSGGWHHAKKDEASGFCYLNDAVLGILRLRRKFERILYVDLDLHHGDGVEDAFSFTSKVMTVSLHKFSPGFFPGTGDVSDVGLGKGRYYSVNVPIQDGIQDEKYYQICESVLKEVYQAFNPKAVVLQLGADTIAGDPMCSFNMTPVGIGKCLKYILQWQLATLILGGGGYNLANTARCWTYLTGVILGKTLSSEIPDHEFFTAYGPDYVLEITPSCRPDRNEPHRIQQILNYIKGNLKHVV

[2] = target: Histone deacetylase 4 (Homo sapiens) (UniProt P56524); assay: Inhibition of HDAC4 (unknown origin)
Histone deacetylase 4 (Homo sapiens), sequence (P56524 whole entry): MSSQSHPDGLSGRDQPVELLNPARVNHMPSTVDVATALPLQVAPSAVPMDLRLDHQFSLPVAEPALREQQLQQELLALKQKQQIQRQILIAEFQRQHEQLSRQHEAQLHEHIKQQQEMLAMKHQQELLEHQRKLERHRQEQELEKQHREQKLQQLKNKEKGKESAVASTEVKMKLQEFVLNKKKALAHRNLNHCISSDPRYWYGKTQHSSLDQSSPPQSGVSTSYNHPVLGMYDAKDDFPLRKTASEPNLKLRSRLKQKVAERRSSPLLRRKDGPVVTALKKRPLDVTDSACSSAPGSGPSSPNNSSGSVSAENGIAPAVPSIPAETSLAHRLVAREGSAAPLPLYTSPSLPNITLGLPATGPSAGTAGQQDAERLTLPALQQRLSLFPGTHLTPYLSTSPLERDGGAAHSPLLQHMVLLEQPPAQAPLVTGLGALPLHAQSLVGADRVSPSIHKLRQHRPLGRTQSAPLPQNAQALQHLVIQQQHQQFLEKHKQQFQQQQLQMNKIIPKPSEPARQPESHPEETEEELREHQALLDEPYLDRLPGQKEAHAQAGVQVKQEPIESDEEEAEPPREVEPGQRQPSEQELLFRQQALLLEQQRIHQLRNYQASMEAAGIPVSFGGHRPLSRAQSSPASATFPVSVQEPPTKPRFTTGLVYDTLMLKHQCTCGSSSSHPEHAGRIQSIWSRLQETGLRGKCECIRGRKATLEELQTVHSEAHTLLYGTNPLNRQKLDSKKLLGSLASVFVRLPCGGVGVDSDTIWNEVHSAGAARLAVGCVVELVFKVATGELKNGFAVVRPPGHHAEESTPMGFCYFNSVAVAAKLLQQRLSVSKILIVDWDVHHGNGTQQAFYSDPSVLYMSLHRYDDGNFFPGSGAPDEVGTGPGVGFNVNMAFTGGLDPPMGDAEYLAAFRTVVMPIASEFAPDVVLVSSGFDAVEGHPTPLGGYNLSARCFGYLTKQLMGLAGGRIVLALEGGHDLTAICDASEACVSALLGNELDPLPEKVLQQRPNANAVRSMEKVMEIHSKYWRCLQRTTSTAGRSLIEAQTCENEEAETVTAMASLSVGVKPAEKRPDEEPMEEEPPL

[3] = target: T2, Protein deacetylase HDAC6 (Homo sapiens) (UniProt Q9UBN7); assay: Inhibition of HDAC6 (unknown origin)
T2 sequence (whole entry): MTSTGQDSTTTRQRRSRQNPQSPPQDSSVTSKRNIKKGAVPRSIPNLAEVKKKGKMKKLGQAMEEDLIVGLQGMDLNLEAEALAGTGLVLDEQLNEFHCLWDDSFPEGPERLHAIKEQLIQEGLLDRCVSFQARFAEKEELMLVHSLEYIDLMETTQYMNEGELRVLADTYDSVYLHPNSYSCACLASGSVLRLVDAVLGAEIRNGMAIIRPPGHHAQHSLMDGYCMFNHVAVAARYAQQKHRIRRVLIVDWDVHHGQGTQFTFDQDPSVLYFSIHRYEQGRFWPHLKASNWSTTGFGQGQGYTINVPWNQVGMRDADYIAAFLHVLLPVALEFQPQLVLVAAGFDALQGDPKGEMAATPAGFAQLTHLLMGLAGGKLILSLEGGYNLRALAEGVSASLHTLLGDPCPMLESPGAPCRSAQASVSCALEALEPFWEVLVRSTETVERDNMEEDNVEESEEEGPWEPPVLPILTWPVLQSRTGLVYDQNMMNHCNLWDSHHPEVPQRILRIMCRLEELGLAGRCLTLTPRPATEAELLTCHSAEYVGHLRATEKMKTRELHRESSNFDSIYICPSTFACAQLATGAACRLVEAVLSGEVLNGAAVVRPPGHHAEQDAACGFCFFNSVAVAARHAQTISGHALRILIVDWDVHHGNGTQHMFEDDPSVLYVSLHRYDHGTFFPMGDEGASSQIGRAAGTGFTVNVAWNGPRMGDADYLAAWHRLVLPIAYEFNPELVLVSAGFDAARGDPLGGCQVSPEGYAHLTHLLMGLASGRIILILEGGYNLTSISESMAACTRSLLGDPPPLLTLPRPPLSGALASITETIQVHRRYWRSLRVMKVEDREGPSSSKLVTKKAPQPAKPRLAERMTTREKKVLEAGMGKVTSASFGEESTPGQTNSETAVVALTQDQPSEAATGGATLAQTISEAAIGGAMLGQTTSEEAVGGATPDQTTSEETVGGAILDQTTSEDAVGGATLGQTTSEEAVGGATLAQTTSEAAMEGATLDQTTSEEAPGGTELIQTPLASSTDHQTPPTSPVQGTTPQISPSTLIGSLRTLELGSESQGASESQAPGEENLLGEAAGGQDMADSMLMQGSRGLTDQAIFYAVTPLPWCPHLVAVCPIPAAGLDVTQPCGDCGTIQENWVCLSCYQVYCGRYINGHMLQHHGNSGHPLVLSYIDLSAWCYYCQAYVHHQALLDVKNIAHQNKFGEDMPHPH

Histone deacetylase 2 = Histone deacetylase 2 (Homo sapiens, UniProt Q92769); assay: Inhibition of HDAC2 (unknown origin)
Histone deacetylase 2, sequence (Q92769 whole entry): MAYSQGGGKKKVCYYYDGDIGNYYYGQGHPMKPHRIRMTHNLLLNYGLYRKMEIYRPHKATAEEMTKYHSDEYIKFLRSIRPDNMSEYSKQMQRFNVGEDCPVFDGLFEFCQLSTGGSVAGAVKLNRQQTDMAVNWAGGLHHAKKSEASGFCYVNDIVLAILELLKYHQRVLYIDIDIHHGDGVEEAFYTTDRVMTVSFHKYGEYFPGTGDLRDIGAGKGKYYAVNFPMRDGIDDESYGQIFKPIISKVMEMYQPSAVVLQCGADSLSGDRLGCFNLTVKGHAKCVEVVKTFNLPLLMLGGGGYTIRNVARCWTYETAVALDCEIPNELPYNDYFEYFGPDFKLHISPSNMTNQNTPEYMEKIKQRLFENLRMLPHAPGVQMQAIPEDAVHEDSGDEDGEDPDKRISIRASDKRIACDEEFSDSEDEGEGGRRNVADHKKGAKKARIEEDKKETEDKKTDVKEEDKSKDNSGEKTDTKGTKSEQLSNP

[4] = target: T3, Histone deacetylase 7 (Homo sapiens) (UniProt Q8WUI4); assay: Inhibition of HDAC7 (unknown origin)
T3 sequence (whole entry): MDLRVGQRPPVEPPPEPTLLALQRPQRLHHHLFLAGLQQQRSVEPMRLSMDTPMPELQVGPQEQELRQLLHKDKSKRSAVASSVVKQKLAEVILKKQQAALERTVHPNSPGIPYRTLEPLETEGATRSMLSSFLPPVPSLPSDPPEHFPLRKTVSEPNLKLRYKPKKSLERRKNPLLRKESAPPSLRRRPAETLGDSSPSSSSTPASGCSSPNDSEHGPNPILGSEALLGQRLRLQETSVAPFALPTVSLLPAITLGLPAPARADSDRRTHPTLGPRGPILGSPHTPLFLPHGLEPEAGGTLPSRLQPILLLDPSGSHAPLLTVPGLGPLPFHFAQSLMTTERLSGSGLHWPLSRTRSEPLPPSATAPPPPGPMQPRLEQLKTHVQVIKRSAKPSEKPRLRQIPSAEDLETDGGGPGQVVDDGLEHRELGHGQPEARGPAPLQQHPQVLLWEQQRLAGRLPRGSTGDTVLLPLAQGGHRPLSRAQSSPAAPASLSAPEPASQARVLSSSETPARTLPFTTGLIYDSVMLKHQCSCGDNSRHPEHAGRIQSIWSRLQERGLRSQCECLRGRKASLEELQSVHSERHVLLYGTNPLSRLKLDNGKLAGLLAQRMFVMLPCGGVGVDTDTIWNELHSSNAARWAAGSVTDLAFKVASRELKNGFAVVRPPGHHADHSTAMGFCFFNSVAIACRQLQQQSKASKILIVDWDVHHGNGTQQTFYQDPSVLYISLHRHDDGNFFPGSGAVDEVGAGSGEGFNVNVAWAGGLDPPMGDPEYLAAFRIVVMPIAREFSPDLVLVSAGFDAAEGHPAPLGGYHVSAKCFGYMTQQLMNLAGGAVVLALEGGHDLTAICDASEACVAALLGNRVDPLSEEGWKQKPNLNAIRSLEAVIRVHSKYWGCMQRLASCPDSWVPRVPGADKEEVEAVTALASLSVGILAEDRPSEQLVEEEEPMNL

[5] = target: Histone deacetylase 5 (Homo sapiens) (UniProt Q9UQL6); assay: Inhibition of HDAC5 (unknown origin)
Histone deacetylase 5 (Homo sapiens), sequence (Q9UQL6 whole entry): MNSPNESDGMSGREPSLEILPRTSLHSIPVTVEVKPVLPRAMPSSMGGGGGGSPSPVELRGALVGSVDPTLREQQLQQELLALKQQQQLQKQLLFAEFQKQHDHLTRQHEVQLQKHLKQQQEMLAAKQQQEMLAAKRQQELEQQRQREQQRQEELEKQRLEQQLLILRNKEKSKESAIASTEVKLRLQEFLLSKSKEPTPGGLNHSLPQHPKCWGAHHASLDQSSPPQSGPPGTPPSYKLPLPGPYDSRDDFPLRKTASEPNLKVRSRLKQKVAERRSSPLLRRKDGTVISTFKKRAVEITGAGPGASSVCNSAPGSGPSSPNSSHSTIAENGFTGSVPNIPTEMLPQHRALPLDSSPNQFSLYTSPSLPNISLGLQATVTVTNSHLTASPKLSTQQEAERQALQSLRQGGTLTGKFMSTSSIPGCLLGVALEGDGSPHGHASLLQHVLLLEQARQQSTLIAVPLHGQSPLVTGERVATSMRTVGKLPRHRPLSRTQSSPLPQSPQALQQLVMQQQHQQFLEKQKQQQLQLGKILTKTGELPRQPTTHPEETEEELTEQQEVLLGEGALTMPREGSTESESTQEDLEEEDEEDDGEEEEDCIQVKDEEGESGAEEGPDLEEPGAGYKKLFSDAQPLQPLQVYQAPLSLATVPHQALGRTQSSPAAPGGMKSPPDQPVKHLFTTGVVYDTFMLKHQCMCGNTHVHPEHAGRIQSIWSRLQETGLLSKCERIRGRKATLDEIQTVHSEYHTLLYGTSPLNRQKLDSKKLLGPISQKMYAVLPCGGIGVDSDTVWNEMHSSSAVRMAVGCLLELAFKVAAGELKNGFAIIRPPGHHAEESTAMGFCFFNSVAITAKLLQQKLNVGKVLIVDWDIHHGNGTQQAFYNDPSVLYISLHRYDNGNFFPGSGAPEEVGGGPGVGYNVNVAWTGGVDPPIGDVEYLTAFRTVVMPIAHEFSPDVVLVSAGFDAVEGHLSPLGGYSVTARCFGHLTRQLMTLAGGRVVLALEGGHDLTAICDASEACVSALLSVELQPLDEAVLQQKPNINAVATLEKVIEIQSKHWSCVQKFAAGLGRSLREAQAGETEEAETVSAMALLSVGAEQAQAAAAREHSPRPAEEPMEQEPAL

Measured: inhibition

CNC(=O)C1CCCc2c(-c3ccc(Cl)cc3)n[nH]c21 (racemic)
inactive: all assays above

NC(=O)C1CCCc2c(-c3ccccc3)n[nH]c21 (racemic)
inactive: all assays above
